Data taken from paper PMC9005681, “Use of AD Informer Set compounds to explore validity of novel targets in Alzheimer's disease pathology” (Alzheimer's & Dementia : Translational Research & Clinical …, 2022).

Legend:
[1] = target: T1, cloned human or rodent CNS receptors, channels, and transporters (PDSP panel) (Homo sapiens, UniProt P08172); assay: PDSP GPCR panel primary binding assays at 10 μM; conditions: primary assay
T1 construct: expressed in transfected cells
T1 sequence (P08172 1-466): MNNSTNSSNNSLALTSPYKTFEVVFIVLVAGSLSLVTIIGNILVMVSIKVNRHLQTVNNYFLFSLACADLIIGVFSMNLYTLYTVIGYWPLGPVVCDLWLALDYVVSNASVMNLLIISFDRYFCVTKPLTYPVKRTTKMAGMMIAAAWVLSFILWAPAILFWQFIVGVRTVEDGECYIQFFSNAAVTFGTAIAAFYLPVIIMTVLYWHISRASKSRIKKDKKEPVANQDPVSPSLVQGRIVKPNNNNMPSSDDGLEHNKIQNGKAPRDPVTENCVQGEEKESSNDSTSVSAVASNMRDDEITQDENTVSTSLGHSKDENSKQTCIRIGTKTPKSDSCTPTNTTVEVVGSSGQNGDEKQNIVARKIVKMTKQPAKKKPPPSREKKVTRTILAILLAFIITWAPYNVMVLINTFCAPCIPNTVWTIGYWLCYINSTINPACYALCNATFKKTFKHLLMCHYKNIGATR
Protocol: (§1) GPCR panel: Screening against the receptors within the PDSP panel offers an assessment of off-target pharmacological activity at cloned human or rodent CNS receptors, channels, and transporters that could confound CNS-related phenotypes. A total of 46–47 primary binding assays were run in quadruplicate on these compounds at 10 μM, with follow-up secondary binding assays in 11-point dose-response in triplicate for select compounds versus select receptors. Secondary binding assays were executed for all receptors where test compound displaced an average of >50% of radio-labeled standard ligand. As an exception, no secondary assays were carried out for H3, PBR, or GABAA. […]

[2] = target: T2, cloned human or rodent CNS receptors, channels, and transporters (PDSP panel) (Homo sapiens, UniProt P08912); assay: PDSP GPCR panel primary binding assays at 10 μM; conditions: primary assay
T2 construct: expressed in transfected cells
T2 sequence (P08912 1-532): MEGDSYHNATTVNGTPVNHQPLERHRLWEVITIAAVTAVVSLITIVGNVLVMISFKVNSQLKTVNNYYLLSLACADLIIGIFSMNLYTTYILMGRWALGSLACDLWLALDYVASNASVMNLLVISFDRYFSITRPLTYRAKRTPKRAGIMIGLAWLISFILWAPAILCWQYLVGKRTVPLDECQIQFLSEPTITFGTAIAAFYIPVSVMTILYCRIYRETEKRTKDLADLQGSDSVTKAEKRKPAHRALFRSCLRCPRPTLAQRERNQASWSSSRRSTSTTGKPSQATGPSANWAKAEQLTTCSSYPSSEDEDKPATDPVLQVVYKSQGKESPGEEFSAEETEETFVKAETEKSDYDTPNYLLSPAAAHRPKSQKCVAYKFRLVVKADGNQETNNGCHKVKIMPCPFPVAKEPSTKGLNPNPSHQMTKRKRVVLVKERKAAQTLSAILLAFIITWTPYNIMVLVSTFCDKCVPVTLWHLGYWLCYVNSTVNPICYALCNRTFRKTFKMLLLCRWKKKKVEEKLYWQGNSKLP
Protocol: as §1

[3] = target: T3, cloned human or rodent CNS receptors, channels, and transporters (PDSP panel) (Homo sapiens, UniProt P21918); assay: PDSP GPCR panel primary binding assays at 10 μM; conditions: primary assay
T3 construct: expressed in transfected cells
T3 sequence (P21918 whole entry): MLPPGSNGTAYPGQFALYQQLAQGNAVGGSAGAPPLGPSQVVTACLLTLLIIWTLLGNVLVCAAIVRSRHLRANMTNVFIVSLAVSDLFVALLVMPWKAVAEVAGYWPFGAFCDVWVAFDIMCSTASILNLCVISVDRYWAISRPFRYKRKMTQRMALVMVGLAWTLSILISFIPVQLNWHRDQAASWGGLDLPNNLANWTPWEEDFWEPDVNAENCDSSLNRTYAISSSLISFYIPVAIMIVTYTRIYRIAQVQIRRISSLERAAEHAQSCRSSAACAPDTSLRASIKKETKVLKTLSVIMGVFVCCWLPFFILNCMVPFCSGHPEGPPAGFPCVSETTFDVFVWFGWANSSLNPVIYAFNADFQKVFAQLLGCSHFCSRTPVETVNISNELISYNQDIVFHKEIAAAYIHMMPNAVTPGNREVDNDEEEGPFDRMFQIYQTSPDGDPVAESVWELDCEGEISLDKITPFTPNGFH
Protocol: as §1

[4] = target: T4, cloned human or rodent CNS receptors, channels, and transporters (PDSP panel) (Homo sapiens, UniProt P25021); assay: PDSP GPCR panel primary binding assays at 10 μM; conditions: primary assay
T4 construct: expressed in transfected cells
T4 sequence (P25021 whole entry): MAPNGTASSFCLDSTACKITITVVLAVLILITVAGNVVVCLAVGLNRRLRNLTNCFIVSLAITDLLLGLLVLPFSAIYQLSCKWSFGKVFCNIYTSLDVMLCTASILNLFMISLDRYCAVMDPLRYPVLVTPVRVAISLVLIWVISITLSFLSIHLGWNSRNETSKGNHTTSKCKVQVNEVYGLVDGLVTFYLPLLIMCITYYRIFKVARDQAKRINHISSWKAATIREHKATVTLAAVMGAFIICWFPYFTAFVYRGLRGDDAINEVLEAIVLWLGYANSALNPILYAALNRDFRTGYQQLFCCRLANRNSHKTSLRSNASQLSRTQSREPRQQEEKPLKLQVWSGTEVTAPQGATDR
Protocol: as §1

[5] = target: T5, cloned human or rodent CNS receptors, channels, and transporters (PDSP panel) (Homo sapiens, UniProt P35372); assay: PDSP GPCR panel primary binding assays at 10 μM; conditions: primary assay
T5 construct: expressed in transfected cells
T5 sequence (P35372 whole entry): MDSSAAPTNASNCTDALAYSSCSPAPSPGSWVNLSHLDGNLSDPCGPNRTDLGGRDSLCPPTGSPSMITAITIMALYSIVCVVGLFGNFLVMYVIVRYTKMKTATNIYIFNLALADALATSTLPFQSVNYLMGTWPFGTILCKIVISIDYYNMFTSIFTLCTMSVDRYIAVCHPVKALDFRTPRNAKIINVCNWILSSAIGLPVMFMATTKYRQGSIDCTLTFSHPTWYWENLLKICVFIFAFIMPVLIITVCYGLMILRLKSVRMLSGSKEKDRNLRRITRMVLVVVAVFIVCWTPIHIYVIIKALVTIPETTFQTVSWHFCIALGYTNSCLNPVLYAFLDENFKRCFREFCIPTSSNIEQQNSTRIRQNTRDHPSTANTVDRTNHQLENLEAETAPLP
Protocol: as §1

[6] = target: T6, cloned human or rodent CNS receptors, channels, and transporters (PDSP panel) (Homo sapiens, UniProt P41145); assay: PDSP GPCR panel primary binding assays at 10 μM; conditions: primary assay
T6 construct: expressed in transfected cells
T6 sequence (P41145 whole entry): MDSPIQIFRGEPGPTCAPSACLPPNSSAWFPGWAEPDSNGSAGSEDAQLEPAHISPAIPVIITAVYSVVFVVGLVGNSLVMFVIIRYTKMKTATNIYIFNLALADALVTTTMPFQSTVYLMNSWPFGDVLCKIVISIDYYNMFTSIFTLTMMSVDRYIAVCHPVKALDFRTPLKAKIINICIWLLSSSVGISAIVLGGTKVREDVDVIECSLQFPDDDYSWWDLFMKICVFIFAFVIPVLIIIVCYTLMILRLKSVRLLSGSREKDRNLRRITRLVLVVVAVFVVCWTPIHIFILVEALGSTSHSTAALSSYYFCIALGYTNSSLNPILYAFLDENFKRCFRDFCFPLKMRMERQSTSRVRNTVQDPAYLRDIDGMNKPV
Protocol: as §1

[7] = target: T7, cloned human or rodent CNS receptors, channels, and transporters (PDSP panel) (Homo sapiens, UniProt P41595); assay: PDSP GPCR panel primary binding assays at 10 μM; conditions: primary assay
T7 construct: expressed in transfected cells
T7 sequence (P41595 whole entry): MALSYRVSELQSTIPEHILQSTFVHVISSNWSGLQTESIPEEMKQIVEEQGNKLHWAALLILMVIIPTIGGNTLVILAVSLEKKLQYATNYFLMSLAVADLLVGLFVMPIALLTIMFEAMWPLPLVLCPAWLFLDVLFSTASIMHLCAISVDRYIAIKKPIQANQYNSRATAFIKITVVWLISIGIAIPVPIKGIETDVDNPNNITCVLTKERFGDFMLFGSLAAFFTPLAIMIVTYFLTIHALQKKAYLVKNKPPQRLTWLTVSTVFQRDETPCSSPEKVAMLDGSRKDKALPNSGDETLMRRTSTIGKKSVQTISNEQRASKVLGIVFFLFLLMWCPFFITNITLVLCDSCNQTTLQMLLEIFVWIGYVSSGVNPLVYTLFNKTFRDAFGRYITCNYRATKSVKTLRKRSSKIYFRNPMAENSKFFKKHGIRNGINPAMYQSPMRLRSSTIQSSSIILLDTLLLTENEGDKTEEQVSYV
Protocol: as §1

[8] = target: T8, cloned human or rodent CNS receptors, channels, and transporters (PDSP panel) (Homo sapiens, UniProt P46098); assay: PDSP GPCR panel primary binding assays at 10 μM; conditions: primary assay
T8 construct: expressed in transfected cells
T8 sequence (P46098 24-478): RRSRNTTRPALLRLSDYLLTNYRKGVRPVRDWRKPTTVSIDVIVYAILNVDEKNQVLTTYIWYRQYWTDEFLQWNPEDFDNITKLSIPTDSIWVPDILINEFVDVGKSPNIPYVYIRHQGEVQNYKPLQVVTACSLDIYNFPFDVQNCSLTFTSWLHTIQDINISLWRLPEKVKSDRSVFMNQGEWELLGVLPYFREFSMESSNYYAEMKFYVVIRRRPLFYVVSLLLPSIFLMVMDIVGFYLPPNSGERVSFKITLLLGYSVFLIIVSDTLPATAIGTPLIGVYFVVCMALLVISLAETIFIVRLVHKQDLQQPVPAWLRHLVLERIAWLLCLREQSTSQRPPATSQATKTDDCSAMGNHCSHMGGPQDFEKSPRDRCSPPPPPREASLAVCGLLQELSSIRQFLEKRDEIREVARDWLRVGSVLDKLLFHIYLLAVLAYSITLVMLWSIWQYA
Protocol: as §1

cellular system = tested on: cellular system; design: method as in column References for potency and dosing (the 5th table c13); conditions: published data; References for potency and dosing; cited from earlier work
[9] = aqueous, neutral pH (7.4); cited from earlier work

## CCCCNc1ncc2c(-c3ccc(CN4CCN(C)CC4)cc3)cn([C@H]3CC[C@H](O)CC3)c2n1 [UNC2025C, UNC2025]
[1]; Receptor M2, 10 μM
  Inhibition 1: 32.43%
  Inhibition 2: 20.76%
  Inhibition 3: 14.93%
  Inhibition 4: 24.5%
[1]; Receptor M2, 10 μM, mean of Inhibition 1-4
  Mean %: 23.16%
[2]; Receptor M5, 10 μM
  Inhibition 1: 16.16%
  Inhibition 2: 21.19%
  Inhibition 3: 19.69%
  Inhibition 4: 10.93%
[2]; Receptor M5, 10 μM, mean of Inhibition 1-4
  Mean %: 16.99%
[3]; Receptor D5, 10 μM
  Inhibition 1: 6.22%
  Inhibition 2: 2.13%
  Inhibition 3: 5.78%
  Inhibition 4: 14.39%
[3]; Receptor D5, 10 μM, mean of Inhibition 1-4
  Mean %: 7.13%
[4]; Receptor H2, 10 μM
  Inhibition 1: 36.84%
  Inhibition 2: 35.2%
  Inhibition 3: 22.04%
  Inhibition 4: 12.62%
[4]; Receptor H2, 10 μM, mean of Inhibition 1-4
  Mean %: 26.68%
[5]; Receptor MOR, 10 μM
  Inhibition 1: 9.74%
  Inhibition 2: 12.91%
  Inhibition 3: 2.36%
  Inhibition 4: 6.67%
[5]; Receptor MOR, 10 μM, mean of Inhibition 1-4
  Mean %: 7.92%
[6]; Receptor KOR, 10 μM
  Inhibition 1: -17.91%
  Inhibition 2: -11.2%
  Inhibition 3: -40.41%
  Inhibition 4: -19.03%
[6]; Receptor KOR, 10 μM, mean of Inhibition 1-4
  Mean %: -22.14%
[7]; Receptor 5-HT2B, 10 μM
  Inhibition 1: 1.21%
  Inhibition 2: 8.76%
  Inhibition 3: -7.6%
  Inhibition 4: 18.41%
[7]; Receptor 5-HT2B, 10 μM, mean of Inhibition 1-4
  Mean %: 5.2%
[8]; Receptor 5-HT3, 10 μM
  Inhibition 1: 11.35%
  Inhibition 2: 35.98%
  Inhibition 3: 21.68%
  Inhibition 4: 26.58%
[8]; Receptor 5-HT3, 10 μM, mean of Inhibition 1-4
  Mean %: 23.9%
Cellular system
  Reported as cell active (<10 μM): Y (Published data supports that the compound is active in a cellular system when dosed at 10 μM (Y/N))
[9]
  Kinetic solubility: 43.4 µM

## CCC(=O)N1CCC(NC(=O)Nc2ccc(OC(F)(F)F)cc2)CC1 [UNC10302681A, TPPU]
[1]; M2, mean inhibition
  Mean %: -13.3%
[1]; M2, replicate 1
  Inhibition 1: -14.72%
[1]; M2, replicate 2
  Inhibition 2: -20.61%
[1]; M2, replicate 3
  Inhibition 3: -11.27%
[1]; M2, replicate 4
  Inhibition 4: -6.61%
[2]; M5, mean inhibition
  Mean %: -2.23%
[2]; M5, replicate 1
  Inhibition 1: 18.08%
[2]; M5, replicate 2
  Inhibition 2: -1.14%
[2]; M5, replicate 3
  Inhibition 3: -10.91%
[2]; M5, replicate 4
  Inhibition 4: -14.93%
[3]; D5, mean inhibition
  Mean %: -7.53%
[3]; D5, replicate 1
  Inhibition 1: -6.27%
[3]; D5, replicate 2
  Inhibition 2: -1.22%
[3]; D5, replicate 3
  Inhibition 3: -4.28%
[3]; D5, replicate 4
  Inhibition 4: -18.34%
[4]; H2, mean inhibition
  Mean %: -16.74%
[4]; H2, replicate 1
  Inhibition 1: -3.12%
[4]; H2, replicate 2
  Inhibition 2: -11.73%
[4]; H2, replicate 3
  Inhibition 3: -19.51%
[4]; H2, replicate 4
  Inhibition 4: -32.59%
[5]; MOR, mean inhibition
  Mean %: 7.56%
[5]; MOR, replicate 1
  Inhibition 1: 7.83%
[5]; MOR, replicate 2
  Inhibition 2: 3.61%
[5]; MOR, replicate 3
  Inhibition 3: 10.7%
[5]; MOR, replicate 4
  Inhibition 4: 8.11%
[6]; KOR, mean inhibition
  Mean %: -14.38%
[6]; KOR, replicate 1
  Inhibition 1: -11.64%
[6]; KOR, replicate 2
  Inhibition 2: -17.46%
[6]; KOR, replicate 3
  Inhibition 3: -11.75%
[6]; KOR, replicate 4
  Inhibition 4: -16.68%
[7]; 5-HT2B, mean inhibition
  Mean %: 40.75%
[7]; 5-HT2B, replicate 1
  Inhibition 1: 68.75%
[7]; 5-HT2B, replicate 2
  Inhibition 2: 29.73%
[7]; 5-HT2B, replicate 3
  Inhibition 3: 25.12%
[7]; 5-HT2B, replicate 4
  Inhibition 4: 39.38%
[8]; 5-HT3, mean inhibition
  Mean %: 17.23%
[8]; 5-HT3, replicate 1
  Inhibition 1: 6.76%
[8]; 5-HT3, replicate 2
  Inhibition 2: 16.16%
[8]; 5-HT3, replicate 3
  Inhibition 3: 12.2%
[8]; 5-HT3, replicate 4
  Inhibition 4: 33.8%
Cellular system
  Reported as cell active (<10 μM): Y (Published data supports that the compound is active in a cellular system when dosed at 10 μM (Y/N))

## MDL 28170 [UNC10302675A]
[1]; M2, mean inhibition
  Mean %: 1.32%
[1]; M2, replicate 1
  Inhibition 1: -8.82%
[1]; M2, replicate 2
  Inhibition 2: -11.77%
[1]; M2, replicate 3
  Inhibition 3: 0.03%
[1]; M2, replicate 4
  Inhibition 4: 25.84%
[2]; M5, mean inhibition
  Mean %: -3.08%
[2]; M5, replicate 1
  Inhibition 1: 7.51%
[2]; M5, replicate 2
  Inhibition 2: -10.6%
[2]; M5, replicate 3
  Inhibition 3: 0.26%
[2]; M5, replicate 4
  Inhibition 4: -9.5%
[3]; D5, mean inhibition
  Mean %: 3.1%
[3]; D5, replicate 1
  Inhibition 1: 35%
[3]; D5, replicate 2
  Inhibition 2: -0.46%
[3]; D5, replicate 3
  Inhibition 3: -13.75%
[3]; D5, replicate 4
  Inhibition 4: -8.4%
[4]; H2, mean inhibition
  Mean %: -17.24%
[4]; H2, replicate 1
  Inhibition 1: -6.35%
[4]; H2, replicate 2
  Inhibition 2: -24.37%
[4]; H2, replicate 3
  Inhibition 3: -15.47%
[4]; H2, replicate 4
  Inhibition 4: -22.78%
[5]; MOR, mean inhibition
  Mean %: -2.22%
[5]; MOR, replicate 1
  Inhibition 1: 0.73%
[5]; MOR, replicate 2
  Inhibition 2: -3.1%
[5]; MOR, replicate 3
  Inhibition 3: -4.83%
[5]; MOR, replicate 4
  Inhibition 4: -1.67%
[6]; KOR, mean inhibition
  Mean %: 8.82%
[6]; KOR, replicate 1
  Inhibition 1: 3.47%
[6]; KOR, replicate 2
  Inhibition 2: 2.13%
[6]; KOR, replicate 3
  Inhibition 3: 10.86%
[6]; KOR, replicate 4
  Inhibition 4: 18.81%
[7]; 5-HT2B, mean inhibition
  Mean %: -23.86%
[7]; 5-HT2B, replicate 1
  Inhibition 1: -2.15%
[7]; 5-HT2B, replicate 2
  Inhibition 2: -34.45%
[7]; 5-HT2B, replicate 3
  Inhibition 3: -28.58%
[7]; 5-HT2B, replicate 4
  Inhibition 4: -30.26%
[8]; 5-HT3, mean inhibition
  Mean %: -2.62%
[8]; 5-HT3, replicate 1
  Inhibition 1: -0.93%
[8]; 5-HT3, replicate 2
  Inhibition 2: 2.95%
[8]; 5-HT3, replicate 3
  Inhibition 3: -29.22%
[8]; 5-HT3, replicate 4
  Inhibition 4: 16.71%
Cellular system
  Reported as cell active (<10 μM): Y (Published data supports that the compound is active in a cellular system when dosed at 10 μM (Y/N))
